Test results from patent publication US20060002994A1, “Responsive liposomes for ultrasonic drug delivery” (priority 2004, published 2006).
Where two headings read alike, the source gives them in different places.

Assays:
[1] = Estimated partition coefficients (K) of detergents into the lipid membrane; assay type: physicochemical; conditions: estimated as inverse of CMC; P-105 at 37° C.
Excerpt: Critical micelle concentrations (CMC) and estimated partition coefficients (K) of several detergents assayed. For membrane-solubilizing detergents, the product of the CMC and the partition coefficient is of order unity.

[2] = obtained from the literature; P-105 at 37° C.; cited from earlier work
[3] = Critical micelle concentrations (CMC) of detergents; assay type: physicochemical; conditions: source not stated
Excerpt: RESULTS: Some ethylene glycol-containing surfactants can cause enhanced release of a self-quenching fluorescent marker dye from liposomes under 20 kHz ultrasound stimulation.[19] In FIG. 4, the rate of fluorescence increase caused by release of liposomally-entrapped calcein dye is shown in liposomes treated with five different surfactants. The total surfactant concentrations were normalized to the CMCs (Table 1, below). CMCs for TRITON® X-100, TRITON® X-405, PLURONIC® P-105 [20] and TWEEN® 80 were obtained from the literature. All surfactants, except DPPE-PEG2000, were dissolved in the buffer prior to the introduction of the liposomes. DPPE-PEG2000 was incorporated into the liposomes prior to extrusion. For all surfactants except TRITON® X-100, the rate of fluorescence increase in the absence of ultrasound was <0.04% per second, i.e., off the bottom of the figure. (At the higher TRITON® X-100 concentrations, the spontaneous leakage was >0.11% per second.) All of the surfactants induced about a 10-15 fold increase in the response to 20 kHz ultrasound. More remarkably, the surfactants reached maximal effectiveness at concentrations of about 1% of the critical micelle concentration. […] Furthermore, the different surfactants plateau at different levels. […]

In the case of TWEEN ® 80, the K (estimated partition coefficient) [1] is listed as 10000 M⁻¹ and the CMC [2] is listed as 100 µM.
“1,2-dipalmitoyl-sn-glycero-3-phosphoethanolamine-N-methoxy(polyethylene glycol)2000 [DPPE-PEG2000, reference compound]” showed a CMC [3] of 70 µM and a K (estimated partition coefficient) [1] of 14300 M⁻¹.
In the case of TWEEN ® 20, the CMC [3] is reported as 80 µM and the K (estimated partition coefficient) [1] is reported as 12500 M⁻¹.
